In patent US20260125371A1, “METHOD FOR INHIBITING CLOSTRIDIOIDES DIFFICILE SPORE GERMINATION” (UNIVERSITY OF NOTRE DAME DU LAC, priority 2022, published 2026):

Key:
[1] = test system: B. cereus ATCC 13061; test: MIC against B. cereus; format: cell-based; conditions: Bacillus cereus, ATCC13061
[2] = test system: extended panel of Gram-positive bacteria; test: MIC range over extended panel of Gram-positive bacteria; format: cell-based; conditions: other than C. difficile
[3] = test system: C. difficile strain ATCC43255 spores; test: Spore germination inhibition assay; format: cell-based, Clostridioides difficile; conditions: Clostridioides difficile, 1 h, compound 45 μM, germinant 6 mM taurocholate and 12 mM glycine, OD600 over 60 min, duplicate

## Cc1ncc([N+](=O)[O-])n1CCO [MTZ, metronidazole]
[1]
  MIC: > 256 µg/mL

## O=[N+]([O-])c1cnc(-c2nc(-c3ccc(OC4CCCC4)cc3)no2)[nH]1 [Compound 57, 3-(4-(Cyclopentyloxy)phenyl)-5-(4-nitro-1H-imidazol-2-yl)-1,2,4-oxadiazole]
[2]
  activity against Gram-positive bacteria: not active
[3]
  inhibition at 45 µM: < 10%
